From US20250025490A1, “INDUCTION OF TRAINED IMMUNITY FOR THE TREATMENT OF HYPERPROLIFERATIVE DISORDERS” (priority 2021, published 2025)

Tests used:
peritoneal macrophages [1] = experiment: In vitro training and re-stimulation of peritoneal macrophages (Example 2), TNF-α ELISA; format: cell-based, mice; settings: Mdivi-1 10 μM
Method: Isolation and culture of peritoneal macrophages. Mice were euthanized with CO2 inhalation and injected i.p. with 5 ml of sterile cold, complete DMEM medium (Sigma Aldrich) followed by gentle massage of the peritoneum. The peritoneal fluid was then collected, centrifuged at 1600 rpm for 5 min. The cell pellet was washed, counted, and plated at appropriate numbers in complete DMEM. The cells were incubated for 2-4 hours at 37° C. and 5% CO2 to allow peritoneal macrophages attached to the plates. The floating cells were aspirated and plates were gently washed with sterile pre-warmed medium and then added with fresh complete DMEM. For comparison studies between different mouse strains, peritoneal cells were stained with viability dye and anti-F4/80 antibodies (Biolegend) and F4/80^+ macrophages were sorted by FACS Aria III (BD Bioscience).
In vitro training and re-stimulation of peritoneal macrophages. Peritoneal macrophages were treated with 25 μg/ml of WGP or polystyrene beads (3 μm, Sigma-Aldrich) and incubated for 24 h at 37°° C. with 5% CO2. Macrophages were then washed with pre-warmed complete DMEM at least twice to remove excess WGP or polystyrene beads, added with fresh complete DMEM and incubated 6 days. On day 7, macrophages were re-stimulated with different stimuli such as LPS (10 ng/ml) (Sigma), tumor cells, tumor cell culture supernatants (40%) or rMIF (100 ng/ml) (kindly provided by Dr. Robert Mitchell) for 24 h. The culture supernatants were harvested and assayed for TNF-α by ELISA. For cell culture supernatants, tumor cell lines including LLC, B16F10, and EL4, and control cell line MLE-12 were used.
These cell lines were cultured (1 million/4 ml complete DMEM) in a 6-well plate and incubated for 72 h. The supernatants were harvested and stored at −80° C. in aliquots.
ELISA for TNF-α and MIF. TNF-α in the culture supernatants was measured using TNF-α ELISA kit (Biolegend) and MIF levels in the culture supernatants were quantified using mouse MIF ELISAkit (R&D Systems) per the manufacturer's instruction.
In vitro training with S1P. Peritoneal macrophages were stimulated with 200 nM or 300 nM of S1P for 24 h at 37° C. and 5% CO2. The macrophages were then washed and allowed for resting. On day 7, the macrophages were stimulated with LPS (10 ng/ml) or LLC culture supernatant (40%) for 24 h and the supernatants were collected for the quantification of TNF-α using ELISA. For another set of in vitro-training experiment, macrophages were trained with S1P in the presence of Mdivi-1 (10 μM) during S1P training and throughout the resting period. Cells were restimulated with LPS and the supernatants were collected to determine TNF-α levels by ELISA.
[…] The inhibitors were further added to the macrophage cultures and incubated at 37° C. and 5% CO2 for 6 more days. On day 7, the macrophages were washed once with pre-warmed complete DMEM and added LPS (10 ng/ml) or LLC culture supernatant (40%) for re-stimulation.

LLC-GFP cells = experiment: In vivo Mdivi-1 treatment during WGP training, phenotyping and LLC-GFP challenge; design: species or system C57Bl/6 mice
Method: In vivo Mdivi-1 treatment. 6 weeks old C57B1/6 female mice were i.p. injected with Mdivi-1 (50 mg/kg) or DMSO along with suitable carriers (5% Tween-80 and 40% PEG300) starting day 0 for 6 days. Mdivi-1/DMSO treated mice were also treated with PBS or WGP at day 0. Mice were euthanized at day 7 to harvest the BM and lungs for phenotyping using flow cytometry. In tumor challenging experiment, Mdivi-1/DMSO-treated PBS vs WGP trained mice were i.v. injected with 0.4×10^6 LLC-GFP cells on day 9. Mice were euthanized on day 27. Lungs were then analyzed for tumor burden using flow cytometry.
CyTOF mass cytometry staining, data acquisition, and analysis. Lung single cell suspensions were prepared as described earlier and ex vivo stimulated with PMA/Ionomycin for 4 h at 37° C., 5% CO2. The cells were then harvested, washed with PBS and transferred to sterile-capped culture tubes. Cells were then stained for viability using 5 μM cisplatin (Fluidigm) in serum-free RPMI 1640 for 5 min at RT and washed with complete RPMI 1640. Cells were stained with the surface markers antibodies for 30 min at RT and washed twice with Maxpar cell staining buffer (Fluidigm) followed by fixation with 1 ml of 1X Maxpar Fix I buffer for 30 min at RT. Upon fixation, cells were washed twice with 2 ml of 1X Maxpar Perm-S buffer for 5 min at 800 g, stained for the cytoplasmic/secreted antibodies and incubated for 30 min at RT. Following incubation, cells were washed twice with 1 ml of 1X Maxpar Perm-S buffer for 5 min at 800 g. The cells were then suspended in 1 ml of 1X Maxpar nuclear antigen staining buffer (Fluidigm) and incubated for 30 min at RT, washed twice with Maxpar nuclear antigen staining permeability buffer (Fluidigm) at 800 g for 5 min each. Cells were stained for nuclear antigens and incubated at RT for 30 min, washed twice with Maxpar nuclear antigen staining permeability buffer and fixed with 1.6% formaldehyde for 10 min at RT. The fixed cells were then centrifuged to remove the formaldehyde at 800 g for 5 min and incubated with 125 nM of intercalator iridium (Fluidigm) overnight at 4° C. After overnight incubation, the cells were washed twice with cell staining buffer, pelleted and kept on ice until acquisition using CyTOF. Prior to acquisition, cells were suspended in a 1:9 solution of Cell acquisition solution: EQ 4 element calibration beads (Fluidigm) and acquired using a Helios CyTOF system. Upon acquisition of the samples, the .FCS files were normalized to .fcs files using the CyTOF software for analysis. The data acquired by CyTOF were then analyzed using FlowJo10 and the FlowSOM softwares.

peritoneal macrophages [2] = experiment: Mitochondrial fission, TMRM confocal microscopy; format: cell-based, mice; settings: Mdivi-1 10 μM
Method: Confocal microscopy. Poly-L-Lysine-treated glass coverslips were added to 12 well plates to which appropriate numbers of macrophages were added along with 2 ml of sterile complete DMEM. Cells were trained with WGP alone or in combination with Mdivi-1 (10 μM) for 7 days as previously described. After 7 days of incubation, the media was removed, and the cells were washed with sterile PBS followed by addition of TMRM dye (Tetramethylrhodamine, methyl ester, Sigma) for 20 min. After incubation, the cells were washed with PBS and fixed with 1 ml of 4% formalin at room temperature for 20-30 min. The cells were washed thrice with PBS and the glass slides were removed carefully with the help of forceps and mounted on the slides using mounting reagents and left overnight to dry at room temperature or stored at 4° C. protecting from the light. The slides were then read using a Nikon Confocal microscope. Mitochondrial fragment lengths were measured by counting at least 100 mitochondria per sample using an Image-J software.

In the case of `COc1cc(-n2c(=S)[nH]c3ccccc3c2=O)c(Cl)cc1Cl` [Mdivi-1], the “effect on S1P-induced trained immunity (TNF-α)” value (peritoneal macrophages [1]; LPS) is reported as “abrogated S1P-induced trained immunity”, the “effect on WGP-mediated trained responses (TNF-α)” value (peritoneal macrophages [1]; LPS or LLC supernatants) is reported as “abrogated WGP-mediated trained responses” and the “effect on WGP-mediated accumulation of myeloid cells in the lungs” value (LLC-GFP cells; Mdivi-1 50 mg/kg i.p. daily) is reported as “did not affect WGP-mediated accumulation of myeloid cells in the lungs”. For the same molecule, the “effect on WGP-mediated myelopoiesis in the BM” value (LLC-GFP cells; Mdivi-1 50 mg/kg i.p. daily, day 7) was “does not inhibit WGP-mediated myelopoiesis in the BM”, the “lung IM trained phenotype (TNF-α) in WGP trained mice” value (LLC-GFP cells; Mdivi-1 treated) was “completely inhibited” and the “tumor burdens in the lungs” value (LLC-GFP cells; WGP trained + Mdivi-1 vs untrained control) was “no difference in the tumor burdens between WGP trained mice treated with Mdivi-1 and untrained control mice”. The “F4/80+CD11b+ lung MAMs and PD-L1+/CD206+ lung macrophages, CyTOF” value (LLC-GFP cells; mouse, in vivo) was “this effect was abolished when mice were treated with Mdivi-1” and the “effect on WGP-induced mitochondrial fragmentation” value (peritoneal macrophages [2]) was “abrogated WGP-induced mitochondrial fragmentation”.
